Two molecules from ChEMBL document CHEMBL5727873, “Heterocyclic compounds and uses thereof” (2020) can be followed below.

In general, IC50 refers to the concentration that gives 50% inhibition.

Where only a bound is given, the exact number is not on record here.

The target of the test is T1, Histone deacetylase 8 (Homo sapiens, UniProt Q9BY41).
T1 sequence (Q9BY41 whole entry): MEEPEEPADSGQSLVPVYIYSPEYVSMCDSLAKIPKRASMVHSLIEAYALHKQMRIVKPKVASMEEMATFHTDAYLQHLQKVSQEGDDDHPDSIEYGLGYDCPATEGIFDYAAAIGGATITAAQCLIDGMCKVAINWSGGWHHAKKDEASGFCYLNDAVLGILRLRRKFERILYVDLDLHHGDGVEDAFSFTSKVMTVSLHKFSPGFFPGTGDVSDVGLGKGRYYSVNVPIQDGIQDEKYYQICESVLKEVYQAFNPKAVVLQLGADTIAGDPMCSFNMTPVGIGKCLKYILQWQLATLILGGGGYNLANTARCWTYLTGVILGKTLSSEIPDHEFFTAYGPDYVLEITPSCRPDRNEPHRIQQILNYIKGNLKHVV
As to the kind of experiment: Enzymatic Assay: HDAC-Glo I/II Assay Kit was purchased from Promega Corporation (Madison, Wis.), including the following components: HDAC-Glo I/II Buffer (25 mM Tris buffer, pH 8.0, supplemented with 137 mM: NaCl, 2.7 mM KCl, 1% v/v Triton X-100 and 1 mM: MgCl2), luminogenic substrates Boc-GAK(Ac)-aminoluciferin (HDAC-Glo I/II substrate), proprietary developer reagent (containing trypsin). Assay:The HDAC8 reaction was performed at room temperature in white 384-well polystyrene, flat-bottom microtiter plate (Greiner Bio-one, Monroe, N.C.) in a final volume of 20 μL. Test compounds were first diluted serially in DMSO and 100 nL were transferred to the plate wells by Echo 550 (Labcyte, Sunnyvale, Calif.) before the addition of other reaction components. The final concentration of DMSO in the assay was 0.5%. The HDAC-Glo I/II assay reagent was prepared by rehydration of lyophilized HDAC-Glo I/II substrate in 10 mL. HDAC-Glo I/II assay buffer followed with the addition of 10 μL of developer reagent. 10 uL of 3 nM HDAC8 in the HDAC-Glo I/II assay buffer were first dispensed into the microliter plate containing the compounds and incubated at room temperature for 30 min. The reactions were initiated with the addition of 10 uL HDAC-Glo I/II assay reagent with Multidrop.

In the case of `Cn1nc(C(Cc2ccccc2)C(=O)NO)c2ccc(Cl)cc21` (configuration not stated), the IC50 was under 50 nM.
The figure for `CC1CCN(c2cccc3nn(C(Cc4ccccc4)C(=O)NO)cc23)CC1` (configuration not stated) is over 500 nM.
